Data taken from ChEMBL document CHEMBL1131400, “Synthesis and comparative evaluation of two antiviral agents: beta-L-Fd4C and beta-D-Fd4C” (Bioorg Med Chem Lett, 1998).

Legend:
B16 = assay: In vitro inhibitory activity against growth of HIV infected B16 cell line; format: functional, cell-based; conditions: Mus musculus
MT2 = assay: In vitro inhibitory activity against growth of HIV infected MT-2/IIIB cell line; format: functional, cell-based; conditions: Homo sapiens
Rat1 = assay: In vitro inhibitory activity against growth of HIV infected Rat-1 cell line; format: functional, cell-based
HepG2 = assay: In vitro inhibitory activity against growth of HIV infected HepG2 cell line; format: functional, cell-based; conditions: Homo sapiens
CCRF-CEM [1] = assay: In vitro inhibitory activity against growth of HIV infected CEM cells combined with murine CTLL-2T lymphoblast cell line; format: functional, cell-based; conditions: Homo sapiens
CCRF-CEM [2] = assay: In vitro inhibitory activity against growth of HIV infected CEM cell line; format: functional, cell-based; conditions: Homo sapiens
[3] = system: Human immunodeficiency virus; assay: In vitro inhibitory activity against proliferation of HIV viral cell; format: functional, organism-based; conditions: Human immunodeficiency virus 1
DLD-1 = assay: In vitro inhibitory activity against growth of HIV infected DLD-1 cell line; format: functional, cell-based; conditions: Homo sapiens
Hepatitis B virus = assay: In vitro inhibitory activity against proliferation of HBV viral cell; format: functional, organism-based

Nc1nc(=O)n([C@@H]2C=C[C@H](CO)O2)cc1F [ELVUCITABINE]
IC50 (B16): > 200 µM
IC50 (MT2): 9 µM
IC50 (Rat1): > 200 µM
IC50 (HepG2): > 200 µM
IC50 (CCRF-CEM [1]): 24 µM
IC50 (CCRF-CEM [2]): 6.5 µM
EC50 [3]: 0.2 µM
IC50 (DLD-1): > 200 µM

Nc1nc(=O)n([C@H]2C=C[C@@H](CO)O2)cc1F [DEXELVUCITABINE]
IC50 (B16): > 200 µM
IC50 (MT2): 100 µM
IC50 (Rat1): > 200 µM
EC50 (Hepatitis B virus): < 0.3 µM
IC50 (HepG2): > 200 µM
IC50 (CCRF-CEM [1]): 127 µM
IC50 (CCRF-CEM [2]): 100 µM
EC50 [3]: 0.2 µM
IC50 (DLD-1): > 200 µM
